Data: the supplement of paper PMC11061612

What was measured:
Assay in all cases: Bliss excess, mean over the matrix (fraction); higher = more synergy
[1] = test system: SUP-HD1 (Hodgkin's Lymphoma)
Outline: (§1)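 Cell lines grown in DMEM/F12 or RPMI with 10% FBS were plated in 1536-well plates and held 24 hours at 37°C, 5% CO2 before 72 hours of exposure to two-drug dose matrices, with DMSO typically at 0.2%. CellTiter-Glo 2.0 luminescence gave viability, which was converted to inhibition. Vehicle wells were set to 0 and blank wells to 1. Combination Emax is the second-highest inhibition in the matrix, and Bliss excess is the observed combination effect minus the expected EA + EB − EA·EB, where EA and EB are the single-agent effects.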

HT-144 (Melanoma) = test system: HT-144 (Melanoma)
Outline: as §1

[2] = test system: SBC-3 (Small Cell Lung Carcinoma)
Outline: as §1

NCI-H2452 (Mesothelioma) = test system: NCI-H2452 (Mesothelioma)
Outline: as §1

[3] = test system: ATN-1 (T-Lymphoblastic Leukemia)
Outline: as §1

[4] = test system: TOV-21G (Ovarian Carcinoma)
Outline: as §1

[5] = test system: HT-3 (Cervical Carcinoma)
Outline: as §1

GCIY (Gastric Carcinoma) = test system: GCIY (Gastric Carcinoma)
Outline: as §1

DK-MG (Glioblastoma) = test system: DK-MG (Glioblastoma)
Outline: as §1

[6] = test system: BC-1 (B-Cell Non-Hodgkin's Lymphoma)
Outline: as §1

[7] = test system: NCI-H2023 (Non-Small Cell Lung Carcinoma)
Outline: as §1

[8] = test system: SCC90 (Head and Neck Carcinoma)
Outline: as §1

[9] = test system: CAL-85-1 (Breast Carcinoma)
Outline: as §1

[10] = test system: NCI-H1435 (Non-Small Cell Lung Carcinoma)
Outline: as §1

MG-63 (Osteosarcoma) = test system: MG-63 (Osteosarcoma)
Outline: as §1

[11] = test system: RS4-11 (B-Lymphoblastic Leukemia)
Outline: as §1

[12] = test system: NTERA-2-cl-D1 (Other Solid Carcinomas)
Outline: as §1

[13] = test system: BT-474 (Breast Carcinoma)
Outline: as §1

[14] = test system: KNS-62 (Squamous Cell Lung Carcinoma)
Outline: as §1

[15] = test system: JJN-3 (Plasma Cell Myeloma)
Outline: as §1

**Q.** How did the Bliss excess [1] turn out when `CC1(C)CCC(CN2CCN(c3ccc(C(=O)NS(=O)(=O)c4ccc(NCC5CCOCC5)c([N+](=O)[O-])c4)c(Oc4cnc5[nH]ccc5c4)c3)CC2)=C(c2ccc(Cl)cc2)C1` [Venetoclax] + COc1cc(Nc2ncc3c(n2)-c2ccc(Cl)cc2C(c2c(F)cccc2OC)=NC3)ccc1C(=O)O [Alisertib] (first compound max 1 µM, 7x7, partner max 10 µM) was run?
**A.** 0.0776

**Q.** And the Bliss excess (HT-144 (Melanoma))?
**A.** 0.0089

**Q.** And the Bliss excess [2]?
**A.** 0.0101

**Q.** And the Bliss excess (NCI-H2452 (Mesothelioma))?
**A.** 0.0053

**Q.** And the Bliss excess [3]?
**A.** -0.013

**Q.** And the Bliss excess [4]?
**A.** -0.006

**Q.** And the Bliss excess [5]?
**A.** -0.0262

**Q.** What about the Bliss excess (GCIY (Gastric Carcinoma)) of the same compound?
**A.** 0.0271

**Q.** What about the Bliss excess (DK-MG (Glioblastoma)) of the same compound?
**A.** -0.0012

**Q.** And the Bliss excess [6]?
**A.** -0.0492

**Q.** What about the Bliss excess [7] of the same compound?
**A.** -0.0679

**Q.** What about the Bliss excess [8] of the same compound?
**A.** 0.135

**Q.** What about the Bliss excess [9] of the same compound?
**A.** -0.007

**Q.** What about the Bliss excess [10] of the same compound?
**A.** -0.0522

**Q.** What about the Bliss excess (MG-63 (Osteosarcoma)) of the same compound?
**A.** -0.0116

**Q.** What about the Bliss excess [11] of the same compound?
**A.** 0.0168

**Q.** And the Bliss excess [12]?
**A.** 0.0304

**Q.** And the Bliss excess [13]?
**A.** -0.0136

**Q.** What about the Bliss excess [14] of the same compound?
**A.** -0.0512

**Q.** What about the Bliss excess [15] of the same compound?
**A.** 0.45

**Q.** How did the Bliss excess [1] turn out when `CC1(C)CCC(CN2CCN(c3ccc(C(=O)NS(=O)(=O)c4ccc(NCC5CCOCC5)c([N+](=O)[O-])c4)c(Oc4cnc5[nH]ccc5c4)c3)CC2)=C(c2ccc(Cl)cc2)C1` [Venetoclax] + C[C@@H]1COCCN1C2=NC(=NC(=C2)C3(CC3)[S@](=N)(=O)C)C4=C5C=CNC5=NC=C4 [AZD6738] (first compound max 1 µM, 7x7, partner max 10 µM) was run?
**A.** -0.0605

**Q.** What about the Bliss excess (HT-144 (Melanoma)) of the same compound?
**A.** 0.0378

**Q.** What about the Bliss excess [2] of the same compound?
**A.** -0.0906

**Q.** And the Bliss excess (NCI-H2452 (Mesothelioma))?
**A.** -0.0034

**Q.** And the Bliss excess [3]?
**A.** -0.0216

**Q.** And the Bliss excess [4]?
**A.** -0.0256

**Q.** What about the Bliss excess [5] of the same compound?
**A.** -0.0419

**Q.** And the Bliss excess (GCIY (Gastric Carcinoma))?
**A.** -0.0468

**Q.** And the Bliss excess (DK-MG (Glioblastoma))?
**A.** -0.0914

**Q.** And the Bliss excess [6]?
**A.** 0.0087

**Q.** What about the Bliss excess [7] of the same compound?
**A.** -0.0671

**Q.** What about the Bliss excess [8] of the same compound?
**A.** -0.014

**Q.** What about the Bliss excess [9] of the same compound?
**A.** -0.0195

**Q.** And the Bliss excess [10]?
**A.** -0.014

**Q.** What about the Bliss excess (MG-63 (Osteosarcoma)) of the same compound?
**A.** -0.0758

**Q.** And the Bliss excess [11]?
**A.** 0.0104

**Q.** What about the Bliss excess [12] of the same compound?
**A.** -0.0238

**Q.** And the Bliss excess [13]?
**A.** -0.0265

**Q.** What about the Bliss excess [14] of the same compound?
**A.** -0.121

**Q.** What about the Bliss excess [15] of the same compound?
**A.** 0.067

**Q.** For `CC1(C)CCC(CN2CCN(c3ccc(C(=O)NS(=O)(=O)c4ccc(NCC5CCOCC5)c([N+](=O)[O-])c4)c(Oc4cnc5[nH]ccc5c4)c3)CC2)=C(c2ccc(Cl)cc2)C1` [Venetoclax] + C[C@@H](Nc1cc(F)cc(F)c1)c1cc(C(=O)N(C)C)cc2c(=O)cc(N3CCOCC3)oc12 [AZD8186] (first compound max 1 µM, 7x7, partner max 3 µM), which Bliss excess [1] is on record?
**A.** -0.025

**Q.** And the Bliss excess (HT-144 (Melanoma))?
**A.** -0.0295

**Q.** What about the Bliss excess [2] of the same compound?
**A.** -0.034

**Q.** And the Bliss excess (NCI-H2452 (Mesothelioma))?
**A.** 0.0255

**Q.** What about the Bliss excess [3] of the same compound?
**A.** 0.0347

**Q.** And the Bliss excess [4]?
**A.** -0.0271

**Q.** What about the Bliss excess [5] of the same compound?
**A.** -0.0359

**Q.** What about the Bliss excess (GCIY (Gastric Carcinoma)) of the same compound?
**A.** -0.0047

**Q.** What about the Bliss excess (DK-MG (Glioblastoma)) of the same compound?
**A.** -0.0425

**Q.** And the Bliss excess [6]?
**A.** -0.0157

**Q.** And the Bliss excess [7]?
**A.** -0.0539

**Q.** What about the Bliss excess [8] of the same compound?
**A.** 0.048

**Q.** And the Bliss excess [9]?
**A.** -0.055

**Q.** And the Bliss excess [10]?
**A.** 0.0012

**Q.** And the Bliss excess (MG-63 (Osteosarcoma))?
**A.** -0.0636

**Q.** What about the Bliss excess [11] of the same compound?
**A.** -0.0083

**Q.** What about the Bliss excess [12] of the same compound?
**A.** -0.0199

**Q.** And the Bliss excess [13]?
**A.** -0.055

**Q.** What about the Bliss excess [14] of the same compound?
**A.** -0.0545

**Q.** And the Bliss excess [15]?
**A.** -0.0092

**Q.** For `CC1(C)CCC(CN2CCN(c3ccc(C(=O)NS(=O)(=O)c4ccc(NCC5CCOCC5)c([N+](=O)[O-])c4)c(Oc4cnc5[nH]ccc5c4)c3)CC2)=C(c2ccc(Cl)cc2)C1` [Venetoclax] + Cc1cc2ncnn2cc1Nc1ncc2c(n1)n(C1CCOCC1)c(=O)n2C [AZD7648] (first compound max 1 µM, 7x7, partner max 10 µM), which Bliss excess [1] is on record?
**A.** -0.0659

**Q.** What about the Bliss excess (HT-144 (Melanoma)) of the same compound?
**A.** -0.0798

**Q.** And the Bliss excess [2]?
**A.** -0.0729

**Q.** What about the Bliss excess (NCI-H2452 (Mesothelioma)) of the same compound?
**A.** -0.0388

**Q.** What about the Bliss excess [3] of the same compound?
**A.** 0.0196

**Q.** What about the Bliss excess [4] of the same compound?
**A.** -0.002

**Q.** What about the Bliss excess [5] of the same compound?
**A.** -0.016

**Q.** What about the Bliss excess (GCIY (Gastric Carcinoma)) of the same compound?
**A.** -0.0232

**Q.** What about the Bliss excess (DK-MG (Glioblastoma)) of the same compound?
**A.** -0.0355

**Q.** And the Bliss excess [6]?
**A.** 0.017

**Q.** What about the Bliss excess [7] of the same compound?
**A.** -0.0513

**Q.** And the Bliss excess [8]?
**A.** 0.118

**Q.** What about the Bliss excess [9] of the same compound?
**A.** -0.0251

**Q.** And the Bliss excess [10]?
**A.** -0.0088

**Q.** And the Bliss excess (MG-63 (Osteosarcoma))?
**A.** -0.0405

**Q.** And the Bliss excess [11]?
**A.** -0.0149

**Q.** What about the Bliss excess [12] of the same compound?
**A.** -0.0216

**Q.** What about the Bliss excess [13] of the same compound?
**A.** -0.0622

**Q.** And the Bliss excess [14]?
**A.** -0.0255

**Q.** What about the Bliss excess [15] of the same compound?
**A.** 0.0741

**Q.** Which results are given for `CC1(C)CCC(CN2CCN(c3ccc(C(=O)NS(=O)(=O)c4ccc(NCC5CCOCC5)c([N+](=O)[O-])c4)c(Oc4cnc5[nH]ccc5c4)c3)CC2)=C(c2ccc(Cl)cc2)C1` [Venetoclax] + Cn1cnc2c(F)c(Nc3ccc(Br)cc3Cl)c(C(=O)NOCCO)cc21 [Selumetinib] (first compound max 1 µM, 7x7, partner max 3 µM)?
**A.** Bliss excess [1]: -0.039; Bliss excess (HT-144 (Melanoma)): -0.0616; Bliss excess [2]: -0.032; Bliss excess (NCI-H2452 (Mesothelioma)): -0.0501; Bliss excess [3]: -0.0324; Bliss excess [4]: 0.0133; Bliss excess [5]: -0.0218; Bliss excess (GCIY (Gastric Carcinoma)): -0.12; Bliss excess (DK-MG (Glioblastoma)): -0.0177; Bliss excess [6]: 0.0211; Bliss excess [7]: -0.0489; Bliss excess [8]: 0.161; Bliss excess [9]: -0.0368; Bliss excess [10]: 0.0021; Bliss excess (MG-63 (Osteosarcoma)): -0.0292; Bliss excess [11]: 0.0052; Bliss excess [12]: -0.0415; Bliss excess [13]: -0.0419; Bliss excess [14]: -0.047; Bliss excess [15]: 0.0473
